The text below walks through data of patent publication US20200276145A1, “REDUCING SIDE EFFECTS OF SHORT ACTING NO DONORS” (G. POHL-BOSKAMP GMBH & CO. KG, priority 2016, published 2020).

The conditions of data set [1]: after oral administration; cited from earlier work.
The nature of data set [2]: Individual dose titration of sublingual nitroglycerin, side effects (Examples 1 and 2). The class given is in vivo, human.
Data set [3] in a line: Phase IIa forced-titration trial of nitroglycerin sublingual powder in PAOD patients, interim analysis of headache (Example 3). Particulars: for Headache days (%): of study days corrected by drop-out days. Type of data set: in vivo, human. How it is done:
The patients are advised to take the dosages in the morning, noon and evening so that the short acting NO donor is administered in an intermittent manner.
Participants report adverse effects during the study with headache being one of the adverse effects.
The study has not yet been finalized but an interim analysis regarding headache as an adverse effect of the study drug has been performed (FIG. 2, Table 1-3).
At the time point of the interim analysis the study was still blinded, so with regard to patients' reported adverse event headache it could not be distinguished between the frequency of headache in the verum and the placebo group.
As the titration of the study medication takes place in the first 3 weeks, the analysis is focused on reported headache in the first three weeks plus in week 4 to also monitor possible late or ongoing side effects.
The analysis includes 35 participants so far which are at different time points of the study protocol. In FIG. 1 the individual headache days of the 35 participants are shown. Some participants have already reached the end of the 12-week treatment period and are in the follow-up period, some participants are still on treatment, but all participants […] have surpassed the titration phase and are on the final dosage of 0.7 mg GTN.

Setting [4] is: total of 2453 study days so far.
Where [5] appears, read: weeks 1-4, of 927 corrected study days.

Where “and” joins values, the source holds several entries; their conditions need not be identical. Identical values can stand only once.

Take `O=[N+]([O-])O[C@@H]1CO[C@H]2[C@@H]1OC[C@@H]2O` [isosorbide mononitrate]: the Halftime result in data set [1] is on record as “around 5 hours”.

With `O=[N+]([O-])OCC(CO[N+](=O)[O-])O[N+](=O)[O-]` [nitroglycerin], the Side effects result in data set [2] (Example 1, final dosage 0.7 mg after weekly increase 0.15-0.3-0.5-0.7 mg) was “without side effects”; in data set [2] (Example 1, person, approximately 0.15 mg GTN TID sublingual powder), “no headache or other known GTN side effects”; in data set [2] (Example 1, sublingual nitroglycerin in a therapeutic dose, no titration), “severe headache”; in data set [2] (Example 2, 0.15 mg TID), “no nausea or headache or other known GTN side effects”; in data set [2] (Example 2, final dosage 0.4 mg TID after weekly increase 0.15-0.3-0.4 mg) it was “without side effects”; in data set [2] (Example 2, person, initial dose 0.4 mg sublingual, no titration) it was “nausea and mild headache”. Further, the “Remaining share of participant headache days when the 3 participants are excluded” value in data set [3] (3 participants with possible chronic headache or migraine excluded) turned out to be 15%. For the same compound, in data set [3] (during the titration in the first 4 weeks), the “Possibly headache related drop-outs” value was “one”. Besides, in data set [3] (first 4 weeks), the “Headache days of the 3 participants with possible chronic headache or migraine background” value is recorded as 82 days. Besides, the “Participants in whom the headache lasted more than a week” value in data set [3] (first 4 weeks) came to 5 participants. The “Share of headache days due to the 3 participants with possible chronic headache or migraine background” value in data set [3] (first 4 weeks) worked out at 65%. Further, the “Participants with headache on a single day” value in data set [3] (first 4 weeks, not during the first three days, of 35) was found to be 6 participants. In data set [3] (first 4 weeks, of 35), the “Participants with headache that lasted more than one day” value turned out to be 6 participants. In addition, the “Additional participants dropped out due to headache” value in data set [3] (further course of the therapy) is on record as 2 participants. In addition, the “Overall headache frequency in the present study” value in data set [3] (interim analysis, blinded) is given as “below 30%”. The “Headache days recorded for the 3 participants with continuous headache” value in data set [3] (overall study) is 209 days and 212 days. Besides, the “Share of total headache days due to the 3 participants with continuous headache” value in data set [3] (overall study) came out at 85%. In addition, in data set [3] (starting dose 0.3 mg GTN), the “Participants that have headache during the first days of treatment” value is 5 participants. Further, the “Percentage of participants that have headache during the first days of treatment” value in data set [3] (starting dose 0.3 mg GTN) was 14.3%. In addition, in data set [3] (setting [4]), the “Participant headache days recorded so far (overall study)” value is 245 days and 251 days. In addition, the “Percentage of headache days of total study days so far” value in data set [3] (setting [4]) worked out at 10%. Also, the “Participants with possible chronic headache or migraine history” value in data set [3] (week 1), in data set [3] (week 2), in data set [3] (week 3) and in data set [3] (week 4) was 3 in each case. Further, the “Headache corrected by participants with possible chronic headache or migraine history (%)” value is reported as 20% in data set [3] (week 1, 0.3 mg GTN); 11.4% in data set [3] (week 2, 0.5 mg GTN); 5.7% in data set [3] (week 3, 0.7 mg GTN); 0% in data set [3] (week 4, 0.7 mg GTN). Also, the “Participant headache days corrected by participants with possible chronic headache or migraine history (%)” value in data set [3] (week 1, 0.3 mg GTN) is on record as 7.8%; in data set [3] (week 2, 0.5 mg GTN), 4.2%; in data set [3] (week 3, 0.7 mg GTN), 3.1%; in data set [3] (week 4, 0.7 mg GTN), 0%. Also, the “Headache (%) of participants” value is 28.6% in data set [3] (week 1, 0.3 mg GTN, blinded); 20% in data set [3] (week 2, 0.5 mg GTN, blinded); 20.0% in data set [3] (week 2, 0.5 mg GTN, blinded, listed as GTN); 14.3% in data set [3] (week 3, 0.7 mg GTN, blinded); 8.6% in data set [3] (week 4, 0.7 mg GTN, blinded). Moreover, the “Headache days (%)” value in data set [3] (week 1, 0.3 mg GTN) came out at 15.5%; in data set [3] (week 2, 0.5 mg GTN), 13.0%; in data set [3] (week 3, 0.7 mg GTN), 12.3%; in data set [3] (week 4, 0.7 mg GTN), 9.7%. Moreover, in data set [3] (week 2, 3 or 4 versus week 1), the “Change of headache frequency as a result of the increased dosage” value was “did not monitor an increased headache frequency”. In addition, the “Headache days during the first 4 weeks” value in data set [3] (setting [5]) was 118 days and 127 days. For the same compound, the “Overall percentage of headache days during the first 4 weeks” value in data set [3] (setting [5]) was found to be 12.7%.
